Molecules are shown by their SMILES.

Consider one molecule from patent US9512486B2, “Materials, methods, and systems for treating cancer” (The Institute of Cancer Research: Royal Cancer Hospital, priority 2012, dated 2016).

Type in all cases: cell-based
The test system of assay [1] is CHO cells mutated in RAD51D. Briefly: Olaparib sensitivity of wild-type versus RAD51D mutated CHO cells, cell viability. The following applies: CHO RAD51D WT (51D1.3 clone) vs RAD51D deficient CHO (51D1 clone), olaparib for 7 days, FIG. 3C. The source says:
(§1) This method has clinical utility both for individuals with cancer and their relatives. Cancer patients with RAD51D mutations may benefit from specific therapies such as Poly (ADP-Ribose) Polymerase (PARP) inhibitors, which have shown efficacy in patients with impairment of HR due to mutations in BRCA1 or BRCA2. To investigate this we used RNA interference (RNAi) and assessed the relationship between RAD51D loss of function and the sensitivity of tumor cells to a clinical PARP inhibitor, olaparib (AstraZeneca) 4-[(3-[(4-cyclopropylcarbonyl)piperazin-4-yl]carbonyl)-4-fluorophenyl]methyl(2H)phthalazin-1-one. Referring now to FIG. 3. The effect of RAD51D silencing on olaparib sensitivity. CAL51 (FIG. 3A) or MCF7 (FIG. 3B) cells were transfected with siCONTROL, siRNA directed against RAD51D or siRNA directed against BRCA2 and then treated with olaparib for 7 days before assaying for cell viability. Wild-type CHO cells or CHO cells mutated in RAD51D were treated with olaparib for 7 days before assaying for cell viability (FIG. 3C).
(§2) Non-silencing BRCA2 and RAD51D SIGENOME siRNAs (Dharmacon, Lafayette, Colo., USA) were used. […] After 7 days continuous culture, cell viability was estimated using Cell TitreGlo reagent (Promega Madison, Wis., USA) and surviving fractions calculated as previously described.

The test system of assay [2] is CAL51 cells transfected with siRNA directed against RAD51D. In words: Olaparib sensitivity after RAD51D silencing, cell viability (Cell TitreGlo), CAL51. The conditions noted are these: siRAD51D vs siCONTROL and siBRCA2, olaparib titration for 7 days, FIG. 3A.
From the text: as §1, §2

Assay [3] concerns MCF7 cells transfected with siRNA directed against RAD51D. Briefly: Olaparib sensitivity after RAD51D silencing, cell viability (Cell TitreGlo), MCF7. The following applies: siRAD51D vs siCONTROL and siBRCA2, olaparib titration for 7 days, FIG. 3B.
From the text: as §1, §2

As to `O=C(c1cc(Cc2n[nH]c(=O)c3ccccc23)ccc1F)N1CCN(C(=O)C2CC2)CC1` [olaparib, 4-[(3-[(4-cyclopropylcarbonyl)piperazin-4-yl]carbonyl)-4-fluorophenyl]methyl(2H)phthalazin-1-one], the “olaparib sensitivity (Surviving Fraction)” value in assay [1] is “RAD51D selective effect”; in assay [1] (listed as Olaparib) it was “particularly effective in causing the death of cells that have an inactivating mutation of RAD51D”; in assay [2], “olaparib sensitivity of a magnitude similar to that achieved using silencing of BRCA2”; in assay [3] it was “olaparib sensitivity of a magnitude similar to that achieved using silencing of BRCA2”.
